Experiment in all cases: NCI-60 cell line screen, 48 h
In assay [1] the test system is HOP-92 NSCLC.
For assay [2], the system named is OVCAR-8 ovarian.
For assay [3], the system named is UACC-62 melanoma.
Assay [4] has as its system HCC-2998 colon.
The subject of assay [5] is A549 NSCLC.
In assay [6] the test system is RPMI-8226 leukemia.
Assay [7] has as its system 786-0 renal.
Assay [8] concerns KM12 colon.
Assay [9] has as its system UO-31 renal.
For assay [10], the system named is NCI-H460 lung.

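Each compound was tested at five concentrations against cells in 96-well plates for 48 hours. The concentration for 50% growth inhibition is given as GI50. TGI: total growth inhibition.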

As for `CCOC(=O)/C(=C/c1c(-c2ccccc2)[nH]c2ccccc12)C(=O)c1ccc(Cl)cc1`, the GI50 in [1] is 1.93 µM; in assay [2] it was 5.75 µM; in assay [3], 3.27 µM; in assay [4], 3.94 µM; in assay [5], 4.61 µM; in assay [6] it was 2.92 µM. The GI50 in assay [7] is 3.75 µM; in assay [8], 3.29 µM; in assay [9] it was 3.86 µM; in [10], 3.03 µM. Also, the TGI in [1] was 15 µM; in assay [2] it was over 100 µM; in [3], 37.1 µM; in [4], over 100 µM; in assay [5] it was over 100 µM; in [6], over 100 µM. Besides, the TGI was over 100 µM in [7], over 100 µM in [8], over 100 µM in [9] and 10.3 µM in assay [10].
Turning to `CN(C)c1ccc(N=C(C#N)c2nc(N)nc(N3CCOCC3)n2)cc1`, the GI50 is 28.3 µM in assay [1]; 38.1 µM in assay [2]; 46.3 µM in [3]; over 100 µM in [4]; 38.8 µM in assay [5]; 74.3 µM in assay [6]. For the same molecule, the GI50 was 35.6 µM in [7], 53 µM in [8], 71.7 µM in [9] and 48.1 µM in assay [10]. The TGI in assay [1], in assay [2], in assay [3], in [4], in assay [5] and in assay [6] was over 100 µM each time. Moreover, the TGI in assay [7], in assay [8], in assay [9] and in [10] was over 100 µM in each case.
Regarding `CC1(C)CC[C@]2(C(=O)O)CCC3(C)C(=CCC4[C@@]5(C)CC[C@H](OC6OCC(O)C(O)C6OC6OC(CO)C(O)C(O)C6O)C(C)(C)C5CC[C@]43C)C2C1` (stereo not given in full), the TGI amounted to 3.69 µM in assay [1]; 4.12 µM in assay [2]; 3.42 µM in [3]; 3.16 µM in assay [4]; 3.53 µM in assay [5]; 6.71 µM in assay [6]. In addition, the TGI in assay [7] worked out at 4.02 µM; in assay [8], 4.8 µM; in [9], 3.71 µM; in [10], 4.22 µM.
For the molecule `CC(=O)OCC1OC(n2cnc3c(I)nc(I)nc32)C(OC(C)=O)C1OC(C)=O` (stereo not given), the TGI amounted to 9.16 µM in [1]; 24.1 µM in assay [2]; 27.2 µM in assay [3]; 16.9 µM in assay [4]; 32.7 µM in assay [5]; 31.1 µM in assay [6]. Also, the TGI in assay [7] turned out to be 27.8 µM; in assay [8], 15.6 µM; in assay [9], 31.5 µM; in [10], 35.9 µM.
`Oc1ccc(-c2nc(-c3ccc(F)cc3)c(-c3ccncc3)[nH]2)cc1`: the GI50 is 17.2 µM in assay [1]; 22.1 µM in assay [2]; 3 µM in assay [3]; 36.7 µM in assay [4]; 25.8 µM in assay [5]; 11.7 µM in assay [6]. Moreover, the GI50 in assay [7] is 12.5 µM; in assay [8], 23 µM; in assay [9] it was 3.44 µM; in [10], 18.8 µM. Besides, the TGI in [1] was over 100 µM; in assay [2] it was over 100 µM; in assay [3], 15.1 µM; in assay [4] it was over 100 µM; in [5], over 100 µM; in assay [6], 38.2 µM. The TGI is over 100 µM in assay [7], 72.3 µM in assay [8], 20.2 µM in [9] and 59.7 µM in [10].
As for `Nc1ccc(C(=O)O)c2[nH]c3ccccc3c(=O)c12`, the TGI in assay [1], in assay [2], in assay [3], in assay [4], in [5] and in assay [6] was over 100 µM in each case. The TGI in assay [7], in assay [8], in assay [9] and in assay [10] was over 100 µM in each case.
Take `COc1cc2c(cc1OCCCN1CCN(CCCOc3cc4c(cc3OC)C(=O)C3CCC[C@H]3C=N4)CC1)N=C[C@@H]1CCCC1C2=O` (stereo not given in full): the GI50 in assay [1] was 0.597 µM; in assay [2], 11.6 µM; in assay [3], 6.49 µM; in assay [4], 7.21 µM; in assay [5], 35.8 µM; in assay [6], 0.24 µM. The GI50 was 3.84 µM in assay [7], 22.7 µM in assay [8], 17.1 µM in assay [9] and 4.45 µM in assay [10]. Moreover, the TGI in assay [1] is over 61.4 µM; in assay [2], over 52.3 µM; in [3], 15.2 µM; in assay [4], 17.5 µM; in assay [5], over 100 µM; in assay [6], 3.81 µM. In addition, the TGI in [7] is over 100 µM; in assay [8], over 100 µM; in assay [9], over 51.3 µM; in assay [10], over 69.9 µM.
`Nc1nccc(C#Cc2cncnc2Nc2ccc(OCc3cccc(F)c3)c(Cl)c2)n1`: the GI50 in assay [1] is 3.73 µM; in assay [2], 4.94 µM; in assay [3], 4.09 µM; in assay [4], 4.1 µM; in assay [5], 5.99 µM; in [6] it was 5.62 µM. Besides, the GI50 in assay [7] was 7.69 µM; in assay [8], 4.52 µM; in assay [9], 4.34 µM; in assay [10] it was 5.13 µM. The TGI is 8.95 µM in [1]; 24.8 µM in assay [2]; 7.68 µM in assay [3]; 7.55 µM in assay [4]; over 15.6 µM in assay [5]; 16.9 µM in assay [6]. Further, the TGI is over 20.1 µM in [7], 8.2 µM in assay [8], 10.1 µM in assay [9] and 10.3 µM in [10].

These data come from PubChem BioAssay (NCI).
